The source of these data is ChEMBL document CHEMBL5053535, “Design, synthesis and biological evaluation of novel aminopyrazole- and 7-azaindole-based Nek1 inhibitors and their effects on zebrafish kidney development” (Bioorg Med Chem Lett, 2021).

Values after ≈ are worked out from the molar mass of the structure shown.

A short description of data set [1]: Solubility of the compound in DMEM with 1% DMSO by DAD-HPLC based shake flask method. Type of data set: physicochemical.
Data set [2] in a line: Permeability across basolateral to apical side in human Caco-2 cells at pH 7.4 at 1 uM. The class given is ADME, cell-based. The conditions noted are these: Caco-2, pH 7.4, read-out: permeability. In general terms: Caco-2 monolayers are a common model of the intestinal barrier.
Data set [3] can be described thus: Permeability across apical to basolateral side in human Caco-2 cells at pH 6.5 assessed as compound recovery at 1 uM. To be noted: Caco-2, pH 6.5, read-out: Drug recovery. Type of data set: ADME, cell-based.
Data set [4] in a line: Stability of the compound in DMEM measured after 48 hrs by DAD-HPLC method. Type of data set: physicochemical. The conditions noted are these: read-out: Stability.
The nature of data set [5]: Toxicity in zebra fish embryos assessed as lethality at 1.5 uM measured after 96 hrs relative to control. Type of data set: organism-based, Danio rerio. To be noted: zebrafish, in vivo, read-out: Activity.
Data set [6] addresses T1, Serine/threonine-protein kinase Nek1 (Homo sapiens) (UniProt Q96PY6).
T1 sequence (whole entry): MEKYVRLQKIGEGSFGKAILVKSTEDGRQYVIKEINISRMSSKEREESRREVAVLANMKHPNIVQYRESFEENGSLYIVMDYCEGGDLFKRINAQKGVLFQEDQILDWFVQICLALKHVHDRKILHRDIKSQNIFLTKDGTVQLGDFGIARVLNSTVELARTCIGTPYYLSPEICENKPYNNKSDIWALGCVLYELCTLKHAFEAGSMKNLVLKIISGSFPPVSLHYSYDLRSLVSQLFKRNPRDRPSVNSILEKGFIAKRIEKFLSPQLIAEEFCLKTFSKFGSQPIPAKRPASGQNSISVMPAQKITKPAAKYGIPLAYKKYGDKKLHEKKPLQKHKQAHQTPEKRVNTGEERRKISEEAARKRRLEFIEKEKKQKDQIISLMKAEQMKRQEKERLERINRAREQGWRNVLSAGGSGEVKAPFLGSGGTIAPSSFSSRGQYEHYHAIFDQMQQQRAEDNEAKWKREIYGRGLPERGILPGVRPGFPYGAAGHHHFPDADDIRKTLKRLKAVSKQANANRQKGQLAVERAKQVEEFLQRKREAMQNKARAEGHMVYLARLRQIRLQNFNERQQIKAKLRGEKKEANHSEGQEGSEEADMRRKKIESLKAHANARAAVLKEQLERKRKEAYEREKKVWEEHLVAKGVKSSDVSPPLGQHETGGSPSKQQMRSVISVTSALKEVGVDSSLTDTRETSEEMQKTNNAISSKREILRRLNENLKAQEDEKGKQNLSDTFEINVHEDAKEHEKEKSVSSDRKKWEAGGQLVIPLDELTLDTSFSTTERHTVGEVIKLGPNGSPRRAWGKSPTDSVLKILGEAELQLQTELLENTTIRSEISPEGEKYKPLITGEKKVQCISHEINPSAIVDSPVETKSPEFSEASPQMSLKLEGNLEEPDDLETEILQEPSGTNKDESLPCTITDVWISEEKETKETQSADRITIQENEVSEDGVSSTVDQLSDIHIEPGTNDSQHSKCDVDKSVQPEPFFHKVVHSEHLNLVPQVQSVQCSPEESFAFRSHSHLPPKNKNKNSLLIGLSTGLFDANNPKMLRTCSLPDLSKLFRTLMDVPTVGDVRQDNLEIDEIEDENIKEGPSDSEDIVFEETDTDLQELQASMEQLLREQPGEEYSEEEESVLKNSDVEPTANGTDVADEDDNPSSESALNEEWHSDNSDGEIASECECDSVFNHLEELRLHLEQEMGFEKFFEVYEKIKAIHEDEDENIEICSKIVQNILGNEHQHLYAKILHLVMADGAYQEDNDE
Put plainly: Inhibition of human NEK1 using myelin basic protein as substrate assessed as residual activity at 1 uM in presence of [gamma-33P]-ATP by radiometric hotspot kinase assay relative to control.

The target of data set [7] is T2, Serine/threonine-protein kinase Nek1 (Homo sapiens, UniProt Q96PY6).
T2 sequence (Q96PY6 whole entry): T1 sequence (whole entry)
Put plainly: Inhibition of human NEK1 using myelin basic protein as substrate assessed as residual activity in presence of [gamma-33P]-ATP by radiometric hotspot kinase assay relative to control.

In data set [8] the target is Vascular endothelial growth factor receptor 2 (Homo sapiens) (UniProt P35968). Put plainly: Inhibition of human recombinant C-terminal His6 tagged VEGFR2 (789 to 1356 residues) expressed in baculovirus infected insect cells assessed as residual activity at 1 uM pretreated for 20 mins followed by [33P]-ATP addition measured after 120 mins by radiometric hotspot kinase assay relative to control. The conditions noted are these: time 140.0 min.
Chain of Vascular endothelial growth factor receptor 2 (Homo sapiens) (P35968 whole entry, the tested form may be a part): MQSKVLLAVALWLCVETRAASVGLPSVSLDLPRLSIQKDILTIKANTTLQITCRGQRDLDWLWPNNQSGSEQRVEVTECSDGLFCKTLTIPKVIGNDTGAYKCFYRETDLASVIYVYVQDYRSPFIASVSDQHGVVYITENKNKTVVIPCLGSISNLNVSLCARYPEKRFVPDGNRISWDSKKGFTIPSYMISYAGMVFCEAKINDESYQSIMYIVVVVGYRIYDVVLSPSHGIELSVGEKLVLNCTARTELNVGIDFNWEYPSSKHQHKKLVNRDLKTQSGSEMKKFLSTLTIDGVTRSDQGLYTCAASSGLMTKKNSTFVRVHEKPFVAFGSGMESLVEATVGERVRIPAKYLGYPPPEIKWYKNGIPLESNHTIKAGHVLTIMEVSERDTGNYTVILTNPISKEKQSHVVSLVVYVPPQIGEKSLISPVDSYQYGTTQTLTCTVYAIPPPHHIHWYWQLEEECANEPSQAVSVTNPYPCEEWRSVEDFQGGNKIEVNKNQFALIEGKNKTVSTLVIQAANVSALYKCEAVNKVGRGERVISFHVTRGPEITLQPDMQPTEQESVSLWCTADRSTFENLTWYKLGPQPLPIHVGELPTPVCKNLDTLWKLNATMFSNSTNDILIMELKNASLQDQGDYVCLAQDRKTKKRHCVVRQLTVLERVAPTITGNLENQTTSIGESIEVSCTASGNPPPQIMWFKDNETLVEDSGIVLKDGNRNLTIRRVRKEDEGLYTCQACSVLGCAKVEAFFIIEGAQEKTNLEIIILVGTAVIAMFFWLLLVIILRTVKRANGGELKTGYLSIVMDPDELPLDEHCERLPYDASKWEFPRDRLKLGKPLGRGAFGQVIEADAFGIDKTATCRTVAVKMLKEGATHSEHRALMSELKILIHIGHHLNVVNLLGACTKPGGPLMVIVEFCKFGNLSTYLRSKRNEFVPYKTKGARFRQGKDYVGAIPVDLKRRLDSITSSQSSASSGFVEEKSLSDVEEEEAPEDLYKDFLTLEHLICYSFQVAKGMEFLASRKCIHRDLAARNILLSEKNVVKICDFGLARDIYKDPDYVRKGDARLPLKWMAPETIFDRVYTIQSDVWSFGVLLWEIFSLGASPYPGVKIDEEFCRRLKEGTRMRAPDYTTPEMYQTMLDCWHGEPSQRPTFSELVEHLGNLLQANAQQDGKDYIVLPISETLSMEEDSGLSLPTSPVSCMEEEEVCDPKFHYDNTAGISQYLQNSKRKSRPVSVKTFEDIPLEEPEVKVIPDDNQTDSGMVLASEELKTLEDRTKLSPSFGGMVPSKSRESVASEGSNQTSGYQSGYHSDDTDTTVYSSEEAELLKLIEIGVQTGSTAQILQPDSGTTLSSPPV

For `COC(=O)c1cccc(-c2cnc3[nH]cc(-c4cccnc4)c3c2)c1`, in data set [1], the solubility – broadly, the dissolved amount per volume that the medium holds – worked out at 4.3 µM (≈ 1.42 µg/mL). Also, the Papp B→A at 1 µM in data set [2] is 0.04 ×10⁻⁶ cm/s. Moreover, the recovery at 1 µM in data set [3] turned out to be 0.4%. Further, the remaining at 48 h in data set [4] was found to be 103%. Also, in data set [5], the mortality at 96 h, 1.5 µM worked out at 100%. The figures for the Activity in data set [6] and in data set [8] were -0.6% and 34.3%, respectively. Besides, the IC50 (commonly the midpoint of a concentration-inhibition curve) in data set [7] turned out to be 11.5 nM.
